The record followed here is US11135233B2, “Methods for preventing or mitigating acute allergic responses using human milk oligosaccharides” (Abbott Laboratories, priority 2013, dated 2021).

Test [1] deals with bone marrow mast cells (BMMC). Kind of test: In vitro mast cell degranulation (β-hexosaminidase release) in sensitized BMMC exposed to HMO. In kind it is cell-based, Balb/c mice. The note with it: anti-DNP IgE sensitized BMMC, HMO at a range of concentrations 30 min prior to DNP-HSA activation; FIG. 1A/1B. The protocol: The ability of HMOs to attenuate mast cell degranulation was tested by exposing sensitized bone marrow mast cells (BMMC) to either 2′-FL or 6′-SL.
BMMC from female Balb/c mice were obtained by culturing the bone marrow cells in enriched RPMI-1640 medium with 10% pokeweed mitogen-stimulated spleen as a source of mast cell growth factors for 3 weeks. The cells were kept at a concentration of 0.2×10^5 cells/ml in a 5% CO2, 37° C. environment, where the medium was changed weekly. BMMC were used for experiments after 3-4 weeks of culture (>95% mast cells). BMMC were sensitized with 1 ug/ml monoclonal anti-dinitrophenyl (DNP) IgE clone and seeded into 96-well plates at a final concentration of 1×10^6 cells/ml. […] Cell supernatants were harvested 30 min after DNP-HSA stimulation and stored at −20° C. until analyzed. […] Results are expressed as a percentage of total β-hexosaminidase. […]
This assay was conducted to assess in-vitro antigen-induced degranulation of mast cells. […] The release of β-hexosaminidase from mast cells was measured from the supernatant. […] The reaction was stopped with 100 μl citrate buffer pH 4.5 and read by using CytoFluor 2350 fluorescent spectrophotometer at 450 nm (excitation 356 nm). B-hexosaminidase release was presented as a percentage of the total B-hexosaminidase release determined by cell lysis with 1×triton-X.

Test [2] has as its system OVA-sensitized mice. Description: OVA-induced food allergy model: diarrhea score. In kind it is in vivo. The note with it: 200 ul of 5 mg/ml in PBS daily oral gavage day 27 to 49; versus untreated or lactose treated OVA-sensitized mice; FIG. 4A/4B. How it is done:
(§1) The ability of HMOs to attenuate the gastrointestinal mast cell response was determined by measuring the amount of diarrhea, change in body temperature, and change in mouse mast cell protease-1 (mMCP-1) levels in HMO treated mice relative to untreated and lactose treated control mice.
(§2) The OVA-induced food allergy model was modified from Yamaki and Yoshino (Allergy. 2012; 67:1259-70). Mice were sensitized with 50 μg of OVA (Sigma, St. Louis, Mo.) and 2 mg of alum (Sigma, St. Louis, Mo.) in 200 μl of Phosphate Saline Buffer (PBS) on day 0 and 14. HMO (200 ul of 5 mg/ml in PBS) treatments (2′-FL or 6′-SL) were administrated daily via oral gavage from day 27 to day 49. Mice were orally challenged with 50 μg of OVA every 3 days (Days: 28, 31, 34, 37, 40, 43, 46 and 49). On challenge days treatments were given 1 hour prior to OVA challenge. On day 49, serum, spleen and intestinal samples, were obtained. Non-sensitized PBS challenged mice served as negative controls.
Diarrhea symptoms were scored by visually monitoring mice for 60 minutes after challenge as follows: 0, normal stools; 1, a few wet an unformed stools; 2, a number of wet an unformed stools with moderate perianal staining of the coat; 3, severe, watery stool with severe perianal staining of the coat.

Test [3] concerns OVA-sensitized mice. Description: OVA-induced food allergy model: rectal temperature after final antigen challenge. The note with it: 200 ul of 5 mg/ml in PBS daily oral gavage; 1 hour following final OVA challenge; versus untreated or lactose treated; FIG. 5A/5B. In kind it is in vivo. The protocol:
as §1, §2
Rectal temperature was monitored for 1 hour following the final antigen challenge.

The subject of test [4] is mouse mast cell protease-1 (mMCP-1). Description: OVA-induced food allergy model: serum mMCP-1 concentration. In kind it is in vivo, mice. The note with it: 200 ul of 5 mg/ml in PBS daily oral gavage; day 49; versus untreated and lactose treated OVA-sensitized controls; FIG. 6. How it is done: as §1, §2
Following body temperature measurements, mice were euthanized and serum mMCP-1 concentration was determined.

Test [5] deals with skin mast cell response in sensitized mice. Description: Passive cutaneous anaphylaxis (PCA), skin mast cell response, Evans blue dye in ear pinnae. It counts as in vivo. The note with it: oral gavage 1 mg per mouse daily for 5 days; anti-DNP IgE i.d., DNP-HSA i.v.; FIG. 3. How it is done: The ability of HMOs to attenuate skin mast cell responses, as measured by the PCA response, was determined in sensitized mice fed 2′-FL, phosphate buffered saline (PBS), lactose, or 6′-SL by detecting the level of dye in ear pinnae indicative of the PCA response.
Mice were treated with 2′-FL, 6′-SL, lactose or PBS by oral gavage (1 mg per mouse) daily for 5 days. On day 4 mice were sensitized by intradermal (i.d.) injection of anti-DNP IgE (10 ng in […] saline) into the right ear pinnae while the left ear was injected with saline alone. Twenty-four hours later, DNP-HSA (10 mg/kg) together with Evans blue (100 mg/kg) was injected intravenously (i.v.). 1 hour following i.v. injection mice were euthanized and ear pinnae collected. Evans blue dye was extracted by incubating the skin samples in DMSO for 24 h at 37° C., and measuring the optical density (O.D.) at 650 nm. Data is presented as the difference in O.D. between the control (left) and sensitized (right) ear.

Consider `CC(=O)N[C@H]1[C@H]([C@H](O)[C@H](O)CO)O[C@@](OC[C@H]2O[C@@H](O[C@H]3[C@H](O)[C@@H](O)[C@H](O)O[C@@H]3CO)[C@H](O)[C@@H](O)[C@H]2O)(C(=O)O)C[C@@H]1O` [6′-SL, 6′-sialyllactose], for which the “β-hexosaminidase (β-Hex) activity relative to controls (percentage of total β-hexosaminidase)” value in test [1] is given as “significant decrease”. The “stool (diarrhea) score” value with OVA-sensitized mice [2] is on record as “but not 6′-SL, Significantly Decreases Diarrhea Symptoms”. Also, the “decline in rectal temperature” value with OVA-sensitized mice [3] is given as “but not 6′-SL, Mitigates the Decline in Rectal Temperature”. Besides, in test [4], the “serum mMCP-1 levels” value was “but not 6′-SL, produced a significant decrease”. In addition, the “difference in Evans blue dye (O.D. at 650 nm) between control (left) and sensitized (right) ear” value in test [5] is “greater difference in dye detected between right and left ears in PBS and lactose-treated mice than in mice treated with 2′-FL or 6′-SL”.

As for `OC[C@H]1O[C@@H](O[C@H]2[C@H](O)[C@@H](O)C(O)O[C@@H]2CO)[C@H](O)[C@@H](O)[C@H]1O` (stereo partly drawn) [lactose, reference compound], in test [5], the “difference in Evans blue dye (O.D. at 650 nm) between control (left) and sensitized (right) ear” value is “greater difference in dye detected”.
